Structures are written as SMILES.

Chain of Human PKK (P03952 391-638): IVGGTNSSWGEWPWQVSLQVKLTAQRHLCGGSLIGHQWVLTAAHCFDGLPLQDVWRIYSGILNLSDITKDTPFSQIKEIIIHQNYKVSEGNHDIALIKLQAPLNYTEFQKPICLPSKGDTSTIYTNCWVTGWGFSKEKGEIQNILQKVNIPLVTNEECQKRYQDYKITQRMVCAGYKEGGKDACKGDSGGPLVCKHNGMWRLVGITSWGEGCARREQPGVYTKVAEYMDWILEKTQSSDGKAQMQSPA
Chain of Human PKK (P03952 20-390 partner): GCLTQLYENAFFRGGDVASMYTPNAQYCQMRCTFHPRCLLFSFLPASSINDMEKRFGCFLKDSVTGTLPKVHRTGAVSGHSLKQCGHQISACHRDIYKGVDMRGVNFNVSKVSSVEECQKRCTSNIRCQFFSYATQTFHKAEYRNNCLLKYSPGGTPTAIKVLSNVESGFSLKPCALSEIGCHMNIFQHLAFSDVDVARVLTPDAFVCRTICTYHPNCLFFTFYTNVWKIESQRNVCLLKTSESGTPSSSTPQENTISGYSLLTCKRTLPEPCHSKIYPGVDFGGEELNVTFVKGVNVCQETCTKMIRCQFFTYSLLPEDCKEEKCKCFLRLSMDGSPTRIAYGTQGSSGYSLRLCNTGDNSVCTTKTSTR

The experiment has as its target Human PKK (Homo sapiens (Human), UniProt P03952). Nature of the experiment: Inhibition of PKK using an endpoint assay (human PKK). The format is biochemical. The note with it: 1 h at rt, 0.10 μM H-Pro-Phe-Arg-AMC. The protocol:
The ability of compounds of formula (I) to inhibit plasma kallikrein (PKK), Factor XIIa (FXIIa), Factor XIa (FXIa), Factor Xa (FXa), Factor IIa (alpha-thrombin; FIIa), plasmin, trypsin, tissue kallikrein 1 (TK1), Factor Vila (FVIIa), or FVIIa complexed with Tissue Factor, phospholipids and CaCl2) (FVIIa/TF/PL/CaCl2) was determined using the following biochemical assays in assay buffer (100 mM Tris, 150 mM NaCL, adjusted to a pH of 7.8 with HCl, and containing 0.1% (w/v) BSA and 0.05% (v/v) Tween20) in the presence of 1% (v/v) DMSO:
Subsequently, PPACK II (Calbiochem) was added as a stop solution to achieve a final concentration of 1 μM and fluorescence was measured using an Envision Reader (PerkinElmer) with the wavelength excitation setting of 355 nm and the wavelength emission setting of 460 nm. The number of the compound corresponds to the number of the Example in the experimental section.
`Cc1nc(N2CC3OCC(N)C3C2)ccc1Cn1cc(C(=O)NCc2cc(Cl)ccc2-n2cnnn2)cn1` (centres unmarked) [Example 70, 1-[(6-{3-amino-hexahydro-2H-furo[2,3-c]pyrrol-5-yl}-2-methylpyridin-3-yl)methyl]-N-{[5-chloro-2-(1H-1,2,3,4-tetrazol-1-yl)phenyl]methyl}-1H-pyrazole-4-carboxamide] registered an IC50 of 845 nM.

In turn, `Cc1nc(N2CCC3(CCOC3)C2)ccc1Cn1cc(C(=O)NCc2cc(Cl)ccc2-n2cnnn2)cn1` (centres unmarked) [Example 71, N-{[5-chloro-2-(1H-1,2,3,4-tetrazol-1-yl)phenyl]methyl}-1-[(2-methyl-6-{2-oxa-7-azaspiro[4.4]nonan-7-yl}pyridin-3-yl)methyl]-1H-pyrazole-4-carboxamide] had an IC50 of 8 nM.

The compound `Cc1nc(N2CCCC3(CC3)C2)ccc1Cn1cc(C(=O)NCc2cc(Cl)ccc2-n2cnnn2)cn1` [Example 72, 1-[(6-{5-azaspiro[2.5]octan-5-yl}-2-methylpyridin-3-yl)methyl]-N-{[5-chloro-2-(1H-1,2,3,4-tetrazol-1-yl)phenyl]methyl}-1H-pyrazole-4-carboxamide] showed an IC50 of 74 nM.

Compound `Cc1nc(N2CC3CCCC3C2)ccc1Cn1cc(C(=O)NCc2cc(Cl)ccc2-n2cnnn2)cn1` (centres unmarked) [Example 73, N-{[5-chloro-2-(1H-1,2,3,4-tetrazol-1-yl)phenyl]methyl}-1-[(2-methyl-6-{octahydrocyclopenta[c]pyrrol-2-yl}pyridin-3-yl)methyl]-1H-pyrazole-4-carboxamide] showed an IC50 of 9 nM.

`Cc1nc(N2CC3(CNC(=O)C3)C2)ccc1Cn1cc(C(=O)NCc2cc(Cl)ccc2-n2cnnn2)cn1` [Example 74, N-{[5-chloro-2-(1H-1,2,3,4-tetrazol-1-yl)phenyl]methyl}-1-[(2-methyl-6-{7-oxo-2,6-diazaspiro[3.4]octan-2-yl}pyridin-3-yl)methyl]-1H-pyrazole-4-carboxamide] had an IC50 of 232 nM.

For the compound `Cc1nc(N2CC3COCC(C3)C2)ccc1Cn1cc(C(=O)NCc2cc(Cl)ccc2-n2cnnn2)cn1` [Example 75, N-{[5-chloro-2-(1H-1,2,3,4-tetrazol-1-yl)phenyl]methyl}-1-[(2-methyl-6-{3-oxa-7-azabicyclo[3.3.1]nonan-7-yl}pyridin-3-yl)methyl]-1H-pyrazole-4-carboxamide], it took 7 nM to reach half-maximal inhibition (IC50).

As for `Cc1nc(N2CCC3(CCCO3)C2)ccc1Cn1cc(C(=O)NCc2cc(Cl)ccc2-n2cnnn2)cn1` (centres unmarked) [Example 76, N-{[5-chloro-2-(1H-1,2,3,4-tetrazol-1-yl)phenyl]methyl}-1-[(2-methyl-6-{1-oxa-7-azaspiro[4.4]nonan-7-yl}pyridin-3-yl)methyl]-1H-pyrazole-4-carboxamide], the IC50 came to 3 nM.

For the compound `Cc1nc(N2CC3CC2CO3)ccc1Cn1cc(C(=O)NCc2cc(Cl)ccc2-n2cnnn2)cn1` (centres unmarked) [Example 77, N-{[5-chloro-2-(1H-1,2,3,4-tetrazol-1-yl)phenyl]methyl}-1-[(2-methyl-6-{2-oxa-5-azabicyclo[2.2.1]heptan-5-yl}pyridin-3-yl)methyl]-1H-pyrazole-4-carboxamide], the IC50 amounted to 49 nM.

For `Cc1nc(N2CC3(CCOCC3)C2)ccc1Cn1cc(C(=O)NCc2cc(Cl)ccc2-n2cnnn2)cn1` [Example 78, N-{[5-chloro-2-(1H-1,2,3,4-tetrazol-1-yl)phenyl]methyl}-1-[(2-methyl-6-{7-oxa-2-azaspiro[3.5]nonan-2-yl}pyridin-3-yl)methyl]-1H-pyrazole-4-carboxamide], it took 19 nM to reach half-maximal inhibition (IC50).

On to `Cc1nc(N2CC3(C2)CN(C(C)C)C3)ccc1Cn1cc(C(=O)NCc2cc(Cl)ccc2-n2cnnn2)cn1` [Example 79, N-{[5-chloro-2-(1H-1,2,3,4-tetrazol-1-yl)phenyl]methyl}-1-({2-methyl-6-[6-(propan-2-yl)-2,6-diazaspiro[3.3]heptan-2-yl]pyridin-3-yl}methyl)-1H-pyrazole-4-carboxamide], for which half-maximal inhibition (IC50) required 1060 nM. Against the preceding compound, the IC50 is about 56-fold higher.

For the compound `CO[C@H]1[C@@H]2CC[C@H]1CN(c1ccc(Cn3cc(C(=O)NCc4cc(Cl)ccc4-n4cnnn4)cn3)c(C)n1)C2` [Example 80], the IC50 is 22 nM.

`Cc1nc(N2CC3(CCOC3)C2)ccc1Cn1cc(C(=O)NCc2cc(Cl)ccc2-n2cnnn2)cn1` [Example 81, N-{[5-chloro-2-(1H-1,2,3,4-tetrazol-1-yl)phenyl]methyl}-1-[(2-methyl-6-{6-oxa-2-azaspiro[3.4]octan-2-yl}pyridin-3-yl)methyl]-1H-pyrazole-4-carboxamide] returned an IC50 of 22 nM.

As for `Cc1nc(N2CCC3CC32)ccc1Cn1cc(C(=O)NCc2cc(Cl)ccc2-n2cnnn2)cn1` (centres unmarked) [Example 82, 1-[(6-{2-azabicyclo[3.1.0]hexan-2-yl}-2-methylpyridin-3-yl)methyl]-N-{[5-chloro-2-(1H-1,2,3,4-tetrazol-1-yl)phenyl]methyl}-1H-pyrazole-4-carboxamide], the IC50 worked out at 7 nM. This IC50 lies about 3.1-fold lower than the previous one.

Take `Cc1nc(N2CC3(CN(C)C3)C2)ccc1Cn1cc(C(=O)NCc2cc(Cl)ccc2-n2cnnn2)cn1` [Example 83, N-{[5-chloro-2-(1H-1,2,3,4-tetrazol-1-yl)phenyl]methyl}-1-[(2-methyl-6-{6-methyl-2,6-diazaspiro[3.3]heptan-2-yl}pyridin-3-yl)methyl]-1H-pyrazole-4-carboxamide]: the IC50 amounted to 1090 nM.

In turn, `COC1C2CC1CN(c1ccc(Cn3cc(C(=O)NCc4cc(Cl)ccc4-n4cnnn4)cn3)c(C)n1)C2` (centres unmarked) [Example 84, N-{[5-chloro-2-(1H-1,2,3,4-tetrazol-1-yl)phenyl]methyl}-1-[(6-{6-methoxy-3-azabicyclo[3.1.1]heptan-3-yl}-2-methylpyridin-3-yl)methyl]-1H-pyrazole-4-carboxamide] returned an IC50 of 4 nM.

Compound `Cc1nc(N2CCC3CC3C2)ccc1Cn1cc(C(=O)NCc2cc(Cl)ccc2-n2cnnn2)cn1` (centres unmarked) [Example 85, 1-[(6-{3-azabicyclo[4.1.0]heptan-3-yl}-2-methylpyridin-3-yl)methyl]-N-{[5-chloro-2-(1H-1,2,3,4-tetrazol-1-yl)phenyl]methyl}-1H-pyrazole-4-carboxamide] gave a 50% inhibitory concentration (IC50) of 3 nM. The IC50 values of the last two compounds are within 1.5-fold of each other.

`Cc1nc(N2C[C@@H]3[C@@H](C)[C@@H]3C2)ccc1Cn1cc(C(=O)NCc2cc(Cl)ccc2-n2cnnn2)cn1` [Example 86] had an IC50 of 7 nM.

In turn, `Cc1nc(N2C[C@@H]3C[C@]3(N)C2)ccc1Cn1cc(C(=O)NCc2cc(Cl)ccc2-n2cnnn2)cn1` [Example 88, 1-({6-[(1R,5S)-1-amino-3-azabicyclo[3.1.0]hexan-3-yl]-2-methylpyridin-3-yl}methyl)-N-{[5-chloro-2-(1H-1,2,3,4-tetrazol-1-yl)phenyl]methyl}-1H-pyrazole-4-carboxamide] gave an IC50 of 127 nM.

In the case of `Cc1nc(N2CC[C@@]3(N)C[C@H]3C2)ccc1Cn1cc(C(=O)NCc2cc(Cl)ccc2-n2cnnn2)cn1` [Example 89, 1-({6-[(1S,6S)-6-amino-3-azabicyclo[4.1.0]heptan-3-yl]-2-methylpyridin-3-yl}methyl)-N-{[5-chloro-2-(1H-1,2,3,4-tetrazol-1-yl)phenyl]methyl}-1H-pyrazole-4-carboxamide], the IC50 came out at 61 nM.

As to `Cc1nc(N2CC3CCC(C2)N3)ccc1Cn1cc(C(=O)NCc2cc(Cl)ccc2-n2cnnn2)cn1` [Example 90, N-{[5-chloro-2-(1H-1,2,3,4-tetrazol-1-yl)phenyl]methyl}-1-[(6-{3,8-diazabicyclo[3.2.1]octan-3-yl}-2-methylpyridin-3-yl)methyl]-1H-pyrazole-4-carboxamide], the IC50 turned out to be 119 nM.

As a reminder, the IC50 is the concentration at which inhibition is half-maximal. High values mean weaker potency in that assay, low ones greater potency in that assay.
